Laboratory results from ChEMBL document CHEMBL1130324, “Exceptionally potent antispermatogenic compounds from 8-halogenation of (4aRS,5SR,9bRS)-hexahydroindeno-[1,2-c]pyridines” (1997).

What was measured:
Type in all cases: functional
Mus musculus [1] = experiment: Spermatogenic index (percent change from vehicle control) was calculated in Adult Male Swiss Mice at 25 (umol/kg) dose
Mus musculus [2] = experiment: Spermatogenic index (percent change from vehicle control) was calculated in Adult Male Swiss Mice at 7 (umol/kg) dose
Mus musculus [3] = experiment: Spermatogenic index (percent change from vehicle control) was calculated in Adult Male Swiss Mice at 2 (umol/kg) dose
Mus musculus [4] = experiment: Spermatogenic index (percent change from vehicle control) was calculated in Adult Male Swiss Mice at 3 (umol/kg) dose
Mus musculus [5] = experiment: Spermatogenic index (percent change from vehicle control) was calculated in Adult Male Swiss Mice at 8 (umol/kg) dose
Mus musculus [6] = experiment: Spermatogenic index (percent change from vehicle control) was calculated in Adult Male Swiss Mice at 75 (umol/kg) dose
Mus musculus [7] = experiment: Spermatogenic index (percent change from vehicle control) was calculated in Adult Male Swiss Mice at 19 (umol/kg) dose
Mus musculus [8] = experiment: Spermatogenic index (percent change from vehicle control) was calculated in Adult Male Swiss Mice at 6 (umol/kg) dose
Mus musculus [9] = experiment: Spermatogenic index (percent change from vehicle control) was calculated in Adult Male Swiss Mice at 0.6 (umol/kg) dose
Mus musculus [10] = experiment: Spermatogenic index (percent change from vehicle control) was calculated in Adult Male Swiss Mice at 20 (umol/kg) dose
Mus musculus [11] = experiment: Spermatogenic index (percent change from vehicle control) was calculated in Adult Male Swiss Mice at 62 (umol/kg) dose
Mus musculus [12] = experiment: Spermatogenic index (percent change from vehicle control) was calculated in Adult Male Swiss Mice at 21 (umol/kg) dose
Mus musculus [13] = experiment: Spermatogenic index (percent change from vehicle control) was calculated in Adult Male Swiss Mice at 26 (umol/kg) dose
Mus musculus [14] = experiment: Spermatogenic index (percent change from vehicle control) was calculated in Adult Male Swiss Mice 79 (umol/kg) dose

CCN1CC[C@H]2[C@H](c3ccc(C(=O)O)cc3)c3cc(C)c(Cl)cc3[C@H]2C1
SI (Mus musculus [1]): -72%
SI (Mus musculus [2]): -66%
SI (Mus musculus [3]): -55%

CCN1CC[C@H]2[C@H](c3ccc(C(=O)OC)cc3)c3cc(C)ccc3[C@H]2C1
SI (Mus musculus [1]): -33%
SI (Mus musculus [4]): 3%
SI (Mus musculus [5]): -2%
SI (Mus musculus [6]): -64%

CCN1CC[C@H]2[C@H](c3ccc(C(=O)OC)cc3)c3cc(C)c(I)cc3[C@H]2C1 (stereo in doubt; (l)-2b)
SI (Mus musculus [7]): -72%
SI (Mus musculus [8]): -71%
SI (Mus musculus [9]): -34%
SI (Mus musculus [3]): -66%

CCN1CC[C@H]2[C@H](c3ccc(C(=O)OC)cc3)c3cc(C)c(I)cc3[C@H]2C1 (stereo in doubt; 2b)
SI (Mus musculus [8]): -69%
SI (Mus musculus [10]): -74%
SI (Mus musculus [3]): -57%

CCN1CC[C@H]2[C@H](c3ccc(C(=O)O)cc3)c3cc(C)c(Br)cc3[C@H]2C1
SI (Mus musculus [8]): -69%
SI (Mus musculus [11]): -72%
SI (Mus musculus [12]): -71%

CCN1CC[C@H]2[C@H](c3ccc(C(=O)O)cc3)c3cc(C)c(I)cc3[C@H]2C1
SI (Mus musculus [8]): -66%
SI (Mus musculus [10]): -76%
SI (Mus musculus [3]): -67%

CCN1CC[C@H]2[C@H](c3ccc(C(=O)O)cc3)c3cc(C)ccc3[C@H]2C1
SI (Mus musculus [13]): -24%
SI (Mus musculus [14]): -52%
